Target: kappa opioid receptor (OPRK1) (Homo sapiens (Human), UniProt P41145)
Assay: OPRK1 antagonist assay (b-arrestin-2-TEV / b-lactamase reporter cell line, EC80 U-50488 challenge)
Assay type: cell-based
Details: for IC50: read-out: IC50 nM (% inhib if other than 50%), antagonist mode vs EC80 U-50488, NA = not active at concentrations up to 10 μM; for % inhib if other than 50%: % inhibition at the concentration given

kappa opioid receptor (OPRK1), sequence (P41145 whole entry): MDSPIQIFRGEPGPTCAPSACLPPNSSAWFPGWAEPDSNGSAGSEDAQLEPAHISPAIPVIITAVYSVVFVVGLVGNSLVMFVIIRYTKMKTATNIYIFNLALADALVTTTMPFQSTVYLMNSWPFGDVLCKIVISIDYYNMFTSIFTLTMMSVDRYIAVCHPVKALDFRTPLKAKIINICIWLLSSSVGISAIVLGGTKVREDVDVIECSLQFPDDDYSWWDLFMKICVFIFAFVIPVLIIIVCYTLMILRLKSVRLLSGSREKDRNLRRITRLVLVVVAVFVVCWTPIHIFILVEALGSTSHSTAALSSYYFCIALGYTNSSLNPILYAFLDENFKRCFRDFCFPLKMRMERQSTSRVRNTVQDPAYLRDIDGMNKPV

COC(=O)c1cc(Br)cnc1N1CC2C(C1)C2NC1CCCCC1 (stereo not drawn) [C27] showed an IC50 of 21000 nM.

Work on COC(=O)c1cc(NC(=O)NC(C)C)cnc1N1CCC(NC2CCCCC2)CC1 [C35] yielded an IC50 of 17000 nM.

In the case of COC(=O)c1cnc(N2CCC(NC3CCCCC3)CC2)c([N+](=O)[O-])c1 [C36], the IC50 is reported as 17000 nM.

COC(=O)c1cc(Br)cnc1N1CCC(NC2CCCCC2)C(OC(C)=O)C1 (stereo not drawn) [C49] was tested, and the IC50 was 17000 nM.

In the case of COC(=O)c1cc(Br)cnc1N1CCC(OC2CCCC2O)CC1 (stereo not drawn) [C51], the IC50 is reported as greater than 20000 nM.

Compound CCOC(=O)c1cc(C#N)c(C)nc1N1CCC(NC2CCCCC2)C(CO)C1 (stereo not drawn) [C52] has an IC50 greater than 20000 nM.

Compound CCOC(=O)c1cc(C#N)c(C)nc1N1CCC(NC2CCCCC2)C(O)C1 (stereo not drawn) [C53] has an IC50 of 13000 nM.

For COC(=O)c1cc(Br)cnc1N1CCC(NC(=O)C2CCCCC2)C(O)C1 (stereo not drawn) [C54], the IC50 was greater than 20000 nM.

Compound COC(=O)c1cc(Br)cnc1N1CCC(NC(=O)C2CCCCC2)CC1 [C58] has an IC50 greater than 20000 nM.

For CCOC(=O)/C=C/c1cnc(N2CCC(NC3CCCCC3)CC2)c(C(=O)OC)c1 [C59], the IC50 was greater than 20000 nM.

For CC(=O)c1cc(C)cnc1N1CC[C@@H](NC2CCCCC2)[C@H](O)C1 [C60], the IC50 was 14000 nM.

COC1CN(c2ncc(Br)cc2C(C)=O)CCC1NC1CCCCC1 (stereo not drawn) [C61] showed an IC50 of 10000 nM.

COC(=O)c1cc(C2CC2)cnc1N1CCC(NC2CCCCC2)C(O)C1 (stereo not drawn) [C66] showed an IC50 of 17000 nM.

Cc1cnc(N2CC[C@@H](NC3CCCCC3)[C@H](O)C2)c(C#N)c1 [C67] gave an IC50 of 37000 nM.

In the case of Cc1cnc(N2CCC(NC3CCCCC3)C(CO)C2)c(C#N)c1 (stereo not drawn) [C68], the IC50 is reported as greater than 20000 nM.

For COC1CN(c2ncc(C)cc2C=O)CCC1NC1CCCCC1 (stereo not drawn) [C69], the IC50 was 30000 nM.

Compound COC1CN(c2ncc(C)cc2-c2ncco2)CCC1NC1CCCCC1 (stereo not drawn) [C70] has an IC50 of 17000 nM.

With Cc1ccc2nc(N3CCC(Nc4ncccn4)CC3)c(-c3nc(C)no3)cc2c1 [C83] the IC50 was 47000 nM.

Compound CCOC(=O)c1noc(-c2cc3cc(C)ccc3nc2N2CCC(NC3CCCCC3)C(CO)C2)n1 (stereo not drawn) [C91] has an IC50 of 17700 nM.

With COC(=O)c1cc(Br)cnc1N1CCC(N[C@@H]2CCCC[C@H]2O)CC1 [compound 1] the IC50 was 231 nM.

In the case of CCOC(=O)c1c(Cl)cc(C)nc1N1CCC(N[C@@H]2CCCC[C@H]2O)CC1 [compound 2], the “% inhib if other than 50%” value is reported as 65% and the IC50 is reported as 4500 nM.

Work on COC(=O)c1cc(Br)cnc1N1CCC(NC2CCCC2O)CC1 (stereo not drawn) [compound 3] yielded an IC50 of 287 nM.

In the case of COC(=O)c1cc(Br)cnc1N1CCC(NCCO)CC1 [compound 6], the “% inhib if other than 50%” value is reported as 80% and the IC50 is reported as 9200 nM.

With COC(=O)c1cc(Br)cnc1N1CCC(NC2CCCCC2)CC1 [compound 7] the IC50 was 133 nM.

With CCOC(=O)c1cc(Br)cnc1N1CCC(NC2CCCC[C@@H]2O)CC1 (stereo partly drawn) [compound 8] the IC50 was 579 nM.

Compound COC(=O)c1cc(Br)cnc1N1CCC(NC2CCCC(O)C2)CC1 (stereo not drawn) [compound 10] has an IC50 of 652 nM.

Work on COC(=O)c1cc(Br)cnc1N1CCC(NC2C3CC4CC(C3)CC2C4)CC1 (stereo not drawn) [compound 11] yielded an IC50 of 2800 nM.

COC(=O)c1cc(Br)cnc1N1CCC(NC2CCC[C@H]2O)CC1 (stereo partly drawn) [compound 12] gave an IC50 of 765 nM.

COC(=O)c1cc(Br)cnc1N1CCC(NC2CCOCC2)CC1 [compound 13] gave an IC50 of 621 nM.

With COC(=O)c1cc(Br)cnc1N1CCC(NC2CCCCC2)C1 (stereo not drawn) [compound 14] the IC50 was 185 nM.

In the case of COC(=O)c1cc(Br)cnc1N1C2CCC1CC(NC1CCCCC1)C2 (stereo not drawn) [compound 15], the IC50 is reported as 7700 nM.

Compound COC(=O)c1cc(Br)cnc1N1CCC(NC2CCC(C)CC2)CC1 (stereo not drawn) [compound 16] has an IC50 of 536 nM.

With COC(=O)c1cc(Br)cnc1N1CCC(N[C@H](C)C2CCCCC2)CC1 [compound 17] the IC50 was 6800 nM.

With COC(=O)c1cc(Br)cnc1N1CCC(N2CCCCC2)CC1 [compound 18] the IC50 was 2100 nM.

COC(=O)c1cc(Br)cnc1N1CCC(N(C)C2CCCCC2)CC1 [compound 19] was tested, and the IC50 was 2700 nM.

For COC(=O)c1cc(Br)cnc1N1CCC(NC2CCCCCC2)CC1 [compound 20], the IC50 was 110 nM.

For COC(=O)c1cc(Br)cnc1N1CCC(NC2CCCCCCC2)CC1 [compound 21], the IC50 was 317 nM.

Compound COC(=O)c1cc(Br)cnc1N1CCC(NC2CC3CCC2(C)C3(C)C)CC1 (stereo not drawn) [compound 22] has an IC50 of 10000 nM.

Work on COC(=O)c1cc(Br)cnc1N1CCC(NC2CCCC(C)C2C)CC1 (stereo not drawn) [compound 23] yielded an IC50 of 854 nM.

COC(=O)c1cc(Br)cnc1N1CCC(NC2CCCC2)CC1 [compound 24] was tested, and the IC50 was 120 nM.

CCOC(=O)c1cccnc1N1CCC(NC2CCCCC2)C1 (stereo not drawn) [compound 25] showed an IC50 of 1200 nM.

COC(=O)c1cc(Br)cnc1N1CCC(NC2CCCCC2OC)CC1 (stereo not drawn) [compound 26] showed an IC50 of 267 nM.

COC(=O)c1cc(Br)cnc1N1CCC(N[C@@H]2CCCCC[C@H]2O)CC1 [compound 27] gave an IC50 of 473 nM.

With COC(=O)c1cc(Br)cnc1N1CCC(NC2CC3CCC2C3)CC1 (stereo not drawn) [compound 28] the IC50 was 387 nM.

With COC(=O)c1cc(Br)cnc1N1CCC(CNC2CCCCC2)CC1 [compound 31] the IC50 was 3500 nM.

COC(=O)c1cc(-c2ccsc2)cnc1N1CCC(NC2CCCCC2)CC1 [compound 32] was tested, and the IC50 was 5300 nM.

With O=C(O)c1cc(Br)cnc1N1CCC(NC2CCCCC2)CC1 [compound 34] the “% inhib if other than 50%” value was 85% and the IC50 was 5200 nM.

COC(=O)c1cc(I)cnc1N1CCC(NC2CCCCC2)C1 (stereo not drawn) [compound 35] was tested, and the IC50 was 88 nM.

Compound COC(=O)c1cc(I)cnc1N1CCC(NC2CCCCC2)CC1 [compound 36] has an IC50 of 79 nM.

With COC(=O)c1cc(I)cnc1N1CCC(NC2CCCCC2O)CC1 (stereo not drawn) [compound 37] the IC50 was 142 nM.

Work on CCOC(=O)c1cc(Br)cnc1N1CCC(NC2CCCCC2)CC1 [compound 38] yielded an IC50 of 128 nM.

CC(C)OC(=O)c1cc(Br)cnc1N1CCC(NC2CCCCC2)CC1 [compound 39] showed an IC50 of 398 nM.

Work on COC(=O)c1cc(Cl)cnc1N1CCC(NC2CCCCC2)CC1 [compound 40] yielded an IC50 of 159 nM.

With Cc1noc(-c2cc(Br)cnc2N2CCC(NC3CCCCC3)CC2)n1 [compound 41] the IC50 was 331 nM.

Work on COC(=O)c1cc(I)cnc1N1CCC(NC2CCCCC2)C(O)C1 (stereo not drawn) [compound 42] yielded an IC50 of 18 nM.

COC(=O)c1cc(Cl)cnc1N1CCC(NC2CCCCC2)C(O)C1 (stereo not drawn) [compound 43] was tested, and the IC50 was 52 nM.

COC(=O)c1cc(Br)cnc1N1CCC(NC2CCCC2)C(O)C1 (stereo not drawn) [compound 44] showed an IC50 of 79 nM.

COC(=O)c1cc(Br)cnc1N1CCC(NC2CCCCC2)C(C)C1 (stereo not drawn) [compound 45] gave an IC50 of 164 nM.

Work on COC(=O)c1cc(I)cnc1N1CCC(NC2CCCC2)C(O)C1 (stereo not drawn) [compound 46] yielded an IC50 of 25 nM.

With COC(=O)c1cc(Br)cnc1N1CCC(O)C(NC2CCCCC2)C1 (stereo not drawn) [compound 47] the IC50 was 2800 nM.

COC(=O)c1cc(Br)cnc1N1CC(O)C(NC2CCCCC2)C1 (stereo not drawn) [compound 48] gave an IC50 of 459 nM.

COC(=O)c1cc(Br)cnc1N1CC2CN(C3CCCCC3)CC2C1 (stereo not drawn) [compound 49] gave an IC50 of 1300 nM.

COC(=O)c1cc(Br)cnc1N1CC2CN(C3CCCC3)CC2C1 (stereo not drawn) [compound 50] was tested, and the IC50 was 1000 nM.

Compound COC(=O)c1cc(Br)cnc1N1CCC(N(C)C2CCCCC2)C(O)C1 (stereo not drawn) [compound 51] has an IC50 of 3000 nM.

For COC(=O)c1cc(Br)cnc1N1CCC(NC2CCCCC2)C(F)C1 (stereo not drawn) [compound 52], the IC50 was 3400 nM.

Compound COC(=O)c1cccnc1N1CCC(NC2CCCCC2C)C(O)C1 (stereo not drawn) [compound 53] has an IC50 of 5600 nM.

COC(=O)c1cccnc1N1CCC(NC2CCCCC2OC)C(O)C1 (stereo not drawn) [compound 54] showed an IC50 of 559 nM.

COC(=O)c1cccnc1N1CCC(NC2CCCCCC2)C(O)C1 (stereo not drawn) [compound 55] was tested, and the IC50 was 1800 nM.

Compound COC(=O)c1cccnc1N1CCC(NC2CCOCC2)C(O)C1 (stereo not drawn) [compound 56] has an IC50 of 7000 nM.

— US20250346584A1, “NOVEL KAPPA OPIOID LIGANDS” (The Scripps Research Institute, priority 2012, published 2025)
